Reference: patent publication US20260224582A1, “Heterobicyclic amides as inhibitors of CD38” (Cerevance, Inc., priority 2022, published 2026)

How the values were obtained:
Recombinant human CD38 = biological target: T1, Recombinant human CD38 (Homo sapiens, UniProt P28907); assay: Human CD38 hydrolase assay (fluorescence-based, ε-NAD substrate); format: biochemical; conditions: recombinant human CD38 0.8 nM, 4 μM ε-NAD, 30 min preincubation at 25° C.
T1 sequence (P28907 1-300): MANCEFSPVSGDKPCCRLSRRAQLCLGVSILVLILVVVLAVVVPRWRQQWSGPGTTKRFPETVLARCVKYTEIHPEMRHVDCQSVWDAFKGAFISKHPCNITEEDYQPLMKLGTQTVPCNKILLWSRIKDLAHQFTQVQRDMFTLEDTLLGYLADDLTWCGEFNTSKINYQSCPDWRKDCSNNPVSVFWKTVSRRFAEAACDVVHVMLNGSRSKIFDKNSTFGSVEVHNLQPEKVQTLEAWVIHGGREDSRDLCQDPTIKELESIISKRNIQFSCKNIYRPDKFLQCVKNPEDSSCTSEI
Protocol: The ability of test compounds to inhibit human CD38 hydrolase activity was measured in a fluorescence-based assay using non-physiological NAD^+ substrate analogue 1,N^6-etheno NAD^+ (ε-NAD). Recombinant human CD38 (0.8 nM) was preincubated with test compounds in 384-well black microplates for 30 min at 25° C. in PBS (—Ca^2+/Mg^2+) containing 0.005% BSA (pH 7.4). CD38 hydrolase activity was initiated by addition of 4 μM ε-NAD, which yields the fluorescent product 1,N^6-etheno ADP-ribose. Formation of fluorescent product was followed using ClarioStar Plus (BMG) microplate reader by reading fluorescence (excitation λ=300 nm; emission λ=410 nm) at two time points, one immediately after substrate addition (t=0) and one at 10 min (t=10). Data was analysed by subtracting the values detected at t=0 from t=10 to correct for variation in baseline fluorescence. Fluorescence values were converted to percent inhibition using the average of high signal (CD38 and ε-NAD) and low signal (CD38 and ε-NAD in the presence of a tool CD38 inhibitor) control wells. IC50 values were determined from a 10-point, half log concentration response curve with a four-parameter logistic equation.

Recombinant mouse CD38 = biological target: T2, Recombinant mouse CD38 (Mus musculus, UniProt P56528); assay: Mouse CD38 hydrolase assay (fluorescence-based, ε-NAD substrate); format: biochemical; conditions: recombinant mouse CD38 0.4 nM, 12 μM ε-NAD, 30 min preincubation at 25° C.
T2 sequence (P56528 1-304): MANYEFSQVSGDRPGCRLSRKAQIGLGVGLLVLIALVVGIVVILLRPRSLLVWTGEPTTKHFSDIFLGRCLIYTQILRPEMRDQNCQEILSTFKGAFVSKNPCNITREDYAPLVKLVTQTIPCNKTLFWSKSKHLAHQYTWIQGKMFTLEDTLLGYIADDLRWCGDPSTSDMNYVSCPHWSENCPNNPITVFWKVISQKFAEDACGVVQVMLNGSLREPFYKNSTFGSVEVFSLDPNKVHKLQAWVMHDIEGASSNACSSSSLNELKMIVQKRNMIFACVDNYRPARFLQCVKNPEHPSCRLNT
Protocol: The ability of test compounds to inhibit mouse CD38 hydrolase activity was measured in a fluorescence-based assay using non-physiological NAD^+ substrate analogue 1,N^6-etheno NAD^+ (&-NAD). Recombinant mouse CD38 (0.4 nM) was preincubated with test compounds in 384-well black microplates for 30 min at 25° C. in PBS (—Ca^2+/Mg^2+) containing 0.005% BSA (pH 7.4). CD38 hydrolase activity was initiated by addition of 12 μM ε-NAD, which yields the fluorescent product 1,N^6-etheno ADP-ribose. Formation of fluorescent product was followed using ClarioStar Plus (BMG) microplate reader by reading fluorescence (excitation λ=300 nm; emission λ=410 nm) at two time points, one immediately after substrate addition (t=0) and one at 6 min (t=6).
Data was analysed by subtracting the values detected at t=0 from t=6 to correct for variation in baseline fluorescence. Fluorescence values were converted to percent inhibition using the average of high signal (CD38 and ε-NAD) and low signal (CD38 and ε-NAD in the presence of a tool CD38 inhibitor) control wells. IC50 values were determined from a 10-point, halflog concentration response curve with a four-parameter logistic equation.

SMILES | IC50 (Recombinant human CD38) [nM] | IC50 (Recombinant mouse CD38) [nM]
O=C(N[C@H]1CC[C@@H](N2CCSCC2)CC1)c1cn2ncnc2c(-n2ccnc2)n1 [Example 55, 8-(1H-imidazol-1-yl)-N-((1s,4s)-4-thiomorpholinocyclohexyl)-[1,2,4]triazolo[1,5-a]pyrazine-6-carboxamide] | ≤ 1000 | ≤ 40
O=C(NC1CCN(CC(F)(F)F)CC1)c1cn2ncnc2c(-n2ccnc2)n1 [Example 50, 8-(1H-imidazol-1-yl)-N-(1-(2,2,2-trifluoroethyl)piperidin-4-yl)-[1,2,4]triazolo[1,5-a]pyrazine-6-carboxamide] | ≤ 1000 | ≤ 100
O=C(N[C@H]1CC[C@H](N2CCS(=O)(=O)CC2)CC1)c1cn2ncnc2c(-n2ccnc2)n1 [Example 51, N-((1r,4r)-4-(1,1-dioxidothiomorpholino)cyclohexyl)-8-(1H-imidazol-1-yl)-[1,2,4]triazolo[1,5-a]pyrazine-6-carboxamide] | ≤ 1000 | ≤ 40
O=C(N[C@H]1CC[C@H](NCC(F)F)CC1)c1cn2nccc2c(-n2ccnc2)n1 [Example 37, N-((1r,4r)-4-((2,2-difluoroethyl)amino)cyclohexyl)-4-(1H-imidazol-1-yl)pyrazolo[1,5-a]pyrazine-6-carboxamide] | ≤ 100 | ≤ 40
